Experimental data: article PMC6470589, “Contribution of Molecular Structure to Self-Assembling and Biological Properties of Bifunctional Lipid-Like 4-(N-Alkylpyridinium)-1,4-Dihydropyridines” (Pharmaceutics, 2019)
Where “and” joins values, the source holds several entries; their conditions need not be identical. Equal entries are not always repeated. Entries after “also recorded” stand apart in the source; their conditions may differ.

Columns and labels:
[1] = system: Bacillus subtilis subsp. spizizenii; test: Toxicity screen, serial dilution-spot test; format: cell-based; conditions: gram positive; 24 h exposure in DI water, 28 °C; 0.0001 = no colonies at 0.001 mM;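 note: last dilution that did not fully inhibit growth with colonies still present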
Protocol: (§1) An estimation of the toxicity of 4-(N-alkylpyridinium)-1,4-DHP derivatives 3, 6, 7, and 9–11 was performed using six prokaryotic (bacteria) and one eukaryotic (yeast) microorganism species according to the procedure elaborated by Suppi et al.. The microorganisms used in the study and their origin were: Bacillus subtilis subsp. spizizenii (ATCC® 6633™*, Microbiologics®, St Cloud, MN, USA), Escherichia coli (ATCC® 8739, Microbiologics®), Klebsiella pneumoniae (Latvian Microorganisms strain collection, LMKK, strain number 535, Riga, Latvia), Micrococcus luteus (LMKK, No. 25), Pseudomonas aeruginosa (NCTC 12924, Biosciences Ltd., Dublin, Ireland), Proteus mirabilis (LMKK, No 590), and Saccharomyces cerevisiae, CEN.PK2 strain [32].
(§2) Bacteria and yeast cultures were cultivated until their exponential growth phase (optical density max 1); then, 100 µL of cell suspension was taken, washed in deionised (DI) water, and added to serially diluted samples of corresponding 4-(N-alkylpyridinium)-1,4-DHPs in DI water. All 1,4-DHPs were tested in five serially diluted concentrations (10 mM, 1 mM, 0.1 mM, 0.01 mM, and 0.001 mM). Test organisms were exposed to 1,4-DHP derivatives in DI water on 96-well microplates (Corning, Corning, NY, USA) at 28 °C for 24 h without shaking in the dark. Then, a 5 µL sample was taken from each well and spotted on yeast extract, bactopeptone, dextrose broth (YPD) (yeast extract 1%, bactopeptone 2%, glucose 2% and agar 2%) plates to test the growth of yeasts and lysogeny broth (LB) (yeast extract 0.5%, bactopeptone 1%, NaCl 0.5% and agar 2%) to test the growth for bacteria. Plates were left in 30 °C for 24 h, and assessed for microbial growth.
(§3) If there were no colonies after incubation with 1,4-DHPs in the last concentration of (0.001 mM), then their boundary concentration was set to 0.0001 mM or 0.1 µM.

Escherichia coli = test: Toxicity screen, serial dilution-spot test; format: cell-based; conditions: gram negative; 24 h exposure in DI water, 28 °C; 0.0001 = no colonies at 0.001 mM;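 note: last dilution that did not fully inhibit growth with colonies still present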
Protocol: as §1, §2, §3

Klebsiella pneumoniae = test: Toxicity screen, serial dilution-spot test; format: cell-based; conditions: gram negative; 24 h exposure in DI water, 28 °C; 0.0001 = no colonies at 0.001 mM;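 note: last dilution that did not fully inhibit growth with colonies still present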
Protocol: as §1, §2, §3

Micrococcus luteus = test: Toxicity screen, serial dilution-spot test; format: cell-based; conditions: gram positive; 24 h exposure in DI water, 28 °C; 0.0001 = no colonies at 0.001 mM;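 note: last dilution that did not fully inhibit growth with colonies still present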
Protocol: as §1, §2, §3

Proteus mirabilis = test: Toxicity screen, serial dilution-spot test; format: cell-based; conditions: gram negative; 24 h exposure in DI water, 28 °C; 0.0001 = no colonies at 0.001 mM;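 note: last dilution that did not fully inhibit growth with colonies still present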
Protocol: as §1, §2, §3

Pseudomonas aeruginosa = test: Toxicity screen, serial dilution-spot test; format: cell-based; conditions: gram negative; 24 h exposure in DI water, 28 °C; 0.0001 = no colonies at 0.001 mM;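 note: last dilution that did not fully inhibit growth with colonies still present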
Protocol: as §1, §2, §3

[2] = system: Saccharomyces cerevisiae, CEN.PK2 strain; test: Toxicity screen, serial dilution-spot test; format: cell-based; conditions: yeast; 24 h exposure in DI water, 28 °C; 0.0001 = no colonies at 0.001 mM;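 note: last dilution that did not fully inhibit growth with colonies still present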
Protocol: as §1, §2, §3

[3] = system: six prokaryotic (bacteria) and one eukaryotic (yeast) microorganism species; test: Toxicity screen, whole panel of microorganisms; format: cell-based; conditions: concentrations tested 10 to 0.001 mM
Protocol: as §1, §2, §3

[4] = Self-assembling properties by dynamic light scattering (DLS); format: physicochemical
Protocol: Samples of compounds for dynamic light scattering (DLS) studies were prepared by thin-film hydration method in an aqueous solution at a concentration of 0.5 mg/mL for compounds 1–7, 0.25 mg/mL for compounds 8–10, and 0.1 mg/mL for compound 11. A corresponding amount of compounds was weighted in a round-bottom flask and dissolved in chloroform; then, the organic solvent was removed in vacuo, and the residue was dried in high vacuo for 1 h. An appropriate amount of deionised water was added to each flask for the preparation of stock solutions with the above-mentioned concentrations. Samples were prepared by sonication using a bath-type sonicator (Cole Parmer Ultrasonic Cleaner 8891CPX (Vernon Hills, IL, USA)). Samples were sonicated for 60 min at 50 °C.
The DLS measurements of the nanoparticles in an aqueous solution were carried out on a Zetasizer Nano ZSP (Malvern Panalytical Ltd., Malvern, UK) instrument with Malvern Instruments Ltd. Software 7.12, using the following specifications—medium: water; refractive index: 1.33; viscosity: 0.8872 cP; temperature: 25 °C; dielectric constant: 78.5; nanoparticles: liposomes; refractive index of materials: 1.60; detection angle: 173°; wavelength: 633 nm. Data were analysed using the multimodal number distribution software that was included with the instrument. The measurements were performed in triplicate in order to check their reproducibility.

[5] = Determination of critical aggregation concentration (CAC) by DLS; format: physicochemical; conditions: aqueous media
Protocol: The critical aggregation concentrations (CAC) of 4-(N-alkylpyridinium)-1,4-DHP derivatives were determined in aqueous media using a Zetasizer Nano S90 (Malvern Panalytical Ltd., Malvern, UK) instrument with Malvern Instruments Ltd. Software according to procedure described by Topel et al. and modified by our group. Briefly, as stock solutions of tested compounds were used, samples were prepared for self-assembling experiments. All of the subsequent samples were prepared starting from the concentrated stock solution, which was subjected to a serial two-fold dilution each time with water. The intensity values of scattered light (kcps) as a function of concentration of amphiphiles were analysed. The scattering intensities detected for amphiphile concentrations below CAC have an approximately constant value corresponding to water. The intensity starts to show a linear increase with concentration at the CAC, since the amount of nanoparticles increases in the solution. The intersection of the best-fit lines drawn through the data points is the preliminary CAC value of the compounds.

[6] = parameters: method as in PMID 9713710; conditions: cited from earlier work
human erythrocytes = system: human erythrocytes; parameters: method as in PMID 9713710; conditions: cited from earlier work

SMILES: CCCCCCCCCCCCCCCC[n+]1cccc(C2C(C(=O)OCC)=C(C)NC(C)=C2C(=O)OCC)c1 [Compound 10]
- Boundary concentration, B. subtilis [1]: 0.0001 mM
- Boundary concentration, E. coli (Escherichia coli): 0.01 mM
- Boundary concentration, K. pneumoniae (Klebsiella pneumoniae): 0.01 mM
- Boundary concentration, M. luteus (Micrococcus luteus): 0.001 mM
- Boundary concentration, P. mirabilis (Proteus mirabilis): 0.01 mM
- Boundary concentration, P. aeruginosa (Pseudomonas aeruginosa): 10 mM
- Boundary concentration, S. cerevisiae [2]: 0.0001 mM
- Effect on survival of microorganisms [3]: toxic at various degrees
- PDI ± SD, 1 Set ([4]; freshly prepared samples): 0.10 and 0.10 ± 0.06
- Zeta-Pot ± SD ([4]; freshly prepared samples in water, 0.5 mg/mL (1–7), 0.25 mg/mL (8–10), 0.1 mg/mL (11)): +49.70 ± 7.94 mV
- PDI ± SD, 2 Set ([4]; two weeks after the first set, samples stored at r.t.): 0.25 and 0.25 ± 0.05
- Stability of nanoparticles ([4]; two weeks of storage at r.t., DLS): stable after two weeks of storage; also recorded: confirmed the stability of nanoparticles
- CAC [5]: 28.2 µM
- Release of calcein from DPPC liposomes [6]: remarkable release of calcein from DPPC liposomes
- Hemolysis of human erythrocytes (human erythrocytes): induced the hemolysis of human erythrocytes
